Legend:
[1] = system: Normal Mice (Mus musculus); assay: Immunostimulant (humorral) activity: haemagglutination (HA) antibody titre after immunisation with rabbit RBC's; assay type: in vivo; details: for Haemagglutination titre: mice fed 50-100 mg/Kg body weight, rabbit RBC antigen day 7 and 14, highest serum dilution showing agglutination
Protocol: A. For Humorral Immune Response • a) Treating the animals with the combination of the three coumarinolignoids at the dose in the range of 50-200 mg/Kg body weight for a period of 1-28 days. • b) Administering the animals with an antigen in the range of 0.01 to 0.3 ml of 5×10^9 RBC's in combination with a pharmaceutically acceptable diluent in a range 20-80% of the antigen used on day 7 for the initiation of antibody production. • c) Administering the same dosage regimen of the antigen and diluent as a booster dose after a period of 3-14 days from the day of primary immunization. • d) Withdrawing the blood using a capillary from the orbital plexus of the animal after a period of 18-25 days from the day of primary immunization. • e) Assessing the antibody production in the serum separated and isolated on 28th day through haemagglutination in a 96 well ‘U’ bottom microtitre plate at a titre ranging from 32-2048.
Normal healthy outbred mice, maintained under standard conditions (22±3° C., 12:12 hr light:dark cycle, pellet diet and soaked Bengal gram), 5 animals in each group were taken for the experiment. The animals were fed with the test compound at the dose rate of 50-100 mg/Kg body weight for a period of 1-28 days. Freshly collected and washed rabbit RBC's was used as an antigen which was used to immunize the animal on day 7 followed by the booster dose on day 14th. Blood was collected from the orbital plexus after 21 days and assessed for haemaggluting (HA) titre. The haemagglutination was carried upon using a serial two-fold dilution of the serum in 96 well ‘U’ bottom microtitre plates. The highest dilution showing visible agglutination was taken as the antibody titre.

[2] = system: Hepatocytes (primary cultured liver cells); assay: SGOT quantification of cell culture supernatant of liver cells damaged with d-galactosamine; assay type: cell-based; details: compounds @ 1 μg/ml, 48-72 hrs incubation
Protocol: Hepatocytes were isolated and cultured into tissue culture plates and damaged with d-galactosamine @ 1 μg/ml and the cells were treated with the compounds under question. After 48-72 hrs of incubation the cell culture supernatant was taken for the estimation of SGOT levels which is indicative of the damage of the primary cultured liver cells.

Row | Compound | humorral immunity HA titre ([1]; 256 in normal control) | Haemagglutination titre ([1]; animal 1) | Haemagglutination titre ([1]; animal 2) | Haemagglutination titre ([1]; animal 3) | Haemagglutination titre ([1]; animal 4) | Haemagglutination titre ([1]; animal 5) | Haemagglutination titre ([1]; animal 7) | SGOT levels of the cell culture supernatant ([2]; d-Galactosamine concentration 0.01) | SGOT levels of the cell culture supernatant ([2]; d-Galactosamine concentration 0.1) | SGOT levels of the cell culture supernatant ([2]; d-Galactosamine concentration 1) | SGOT levels of the cell culture supernatant ([2]; d-Galactosamine concentration 10)
1 | O=P1(N(CCCl)CCCl)NCCCO1 (centres unmarked) [Ledoxan, Cyclophosphamide] | 0 | 0 | 0 | 0 | 0 | 0 | 0 | – | – | – | –
2 | N[C@H]1C(O)O[C@H](CO)[C@H](O)[C@@H]1O (stereo partly drawn) [d-galactosamine] | – | – | – | – | – | – | – | 286 | 325 | 420 | 455

— patent publication US20070258989A1, “Immunomodulatory pharmaceutical composition and a process for preparation thereof” (Council of Scientific and Industrial Research, priority 2005, published 2007)
